Data on two compounds can be found in patent publication US7060681B2, “Compositions and methods for use of bioactive agents derived from sulfated and sulfonated amino acids” (Ecole Polytechnique Federale de Lausanne (EPFL), priority 2001, dated 2006).

Ends that are not written are not given here. * marks the point of attachment. SO3 = sulfate on the tyrosine hydroxyl group, O=S(=O)(O)*

In one assay the target is T1, VEGF (Homo sapiens, UniProt P15692).
T1 sequence (P15692 27-191 isoform P15692-4): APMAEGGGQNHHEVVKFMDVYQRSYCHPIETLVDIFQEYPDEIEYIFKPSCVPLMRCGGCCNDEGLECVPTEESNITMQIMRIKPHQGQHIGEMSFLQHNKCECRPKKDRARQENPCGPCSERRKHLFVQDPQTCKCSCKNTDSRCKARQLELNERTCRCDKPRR
Kind of assay: Dissociation constant (KD) by surface plasma resonance (SPR). Format: binding. Particulars: ± standard deviation. From the text:
The sequence from the highest ranked bead from the first library of Example 1, was synthesized as SY(SO3)DY(SO3)G (SEE SEQ ID NO: 17), and the peptide Y(SO3)Y(SO3)GGY(SO3)DY(SO3) (SEE SEQ ID NO: 14) from the library of this Example were both synthesized independently and the dissociation constant (KD) determined by surface plasma resonance (SPR). The peptides were compared to suramin, a known heparin mimic that inhibits angiogenesis. […] Using SPR, there was no detectible binding of the analogous desulfated peptides to VEGF.

For a further assay, the target named is T2, VEGF165 (Homo sapiens, UniProt P15692).
T2 construct: made in house; host or cells: E. coli AD494 (DE3)pLysS
T2 sequence (P15692 27-191 isoform P15692-4): T1 sequence (P15692 27-191 isoform P15692-4)
Kind of assay: Colorimetric competitive bead assay with biotinylated VEGF165 in presence of heparin. The class given is binding. Particulars: about 0.25 nM biotinylated VEGF165; 1 or 10 equivalents of heparin. Here is the method: A colorimetric assay was used to screen the library. The assay employed two different precipitating, developing dyes. In this way, beads that bound VEGF165 selectively and through the sulfate functionality could be determined. A portion of the library (2–3 copies) was swelled with H2O and rinsed 3 times with TBS. The resin was subjected overnight to 0.1% albumin and 0.2% Tween in Tris buffered saline (TBS, blocking buffer) and then rinsed with TBS (2×) prior to adding 1 mL streptavidin alkaline phosphatase (diluted 1:1000 from a 1 mg/mL solution) and shaking for 2 hours. The resin was rinsed with TBS (5×) and 200 μL of 5-bromo-4-chloro-3-indoylphosphate p-toluidine salt/nitro blue tetrazolium chloride (BCIP/NBT) reagent was added to develop a blue/black color where the streptavidin alkaline phosphatase was present. Nonspecific adsorption of the streptavidin alkaline phosphatase was detected as blue/black stained beads. After 15 minutes, the resin was rinsed with TBS (5×) prior to adding 100 μL of about 0.25 nM of biotinylated VEGF165 in the presence or absence of 1 or 10 equivalents of heparin sodium salt (isolated from porcine intestinal mucosa) in 400 μL of blocking buffer. The mixture was shaken overnight, the solution removed, the resin washed with TBS (6×), and 1 mL streptavidin alkaline phosphatase (diluted 1:1000 from a 1 mg/mL solution) was added. […]

One may read the Kd as the concentration at which binding is half-saturated. On to `Cc1ccc(C(=O)Nc2ccc(S(=O)(=O)O)c3cc(S(=O)(=O)O)cc(S(=O)(=O)O)c23)cc1NC(=O)c1cccc(NC(=O)Nc2cccc(C(=O)Nc3cc(C(=O)Nc4ccc(S(=O)(=O)O)c5cc(S(=O)(=O)O)cc(S(=O)(=O)O)c45)ccc3C)c2)c1` [Suramin, suramin], for which the equilibrium dissociation constant (Kd) at VEGF was determined as 340 µM.
“Y(SO3)Y(SO3)GGY(SO3)DY(SO3) (not fully specified (N-terminus); printed as Y(SO3)Y(SO3)GGY(SO3)DY(SO3))”: in the assay with VEGF165, the “Binding of VEGF165 to peptide bead in the presence of heparin (in words)” value is reported as “bound”.
